# Earlier results, collected in patent publication US20240148815A1, “FOOD SUPPLEMENT TO PROMOTE BODY WEIGHT LOSS” (NGN HEALTHCARE-NEW GENERATION NUTRACEUTICALS S.R.L., priority 2021, published 2024).
# Counter-ions that a name gives are not always drawn.
# Legend:
# overweight women = details: 4 weeks, calorie-reduced diet
# obese mice = details: intragastric, 4 weeks
# rodents = details: intragastric preload prior to enteral glucose
# [1] = test system: NCI-716 and STC-1 cells (T2R38); details: by interacting with T2R38
# young healthy subjects = details: oral, encapsulated, 18 mg
compound,measurement,setting,value
N[C@@H](Cc1c[nH]c2ccc(O)cc12)C(=O)O [5-hydroxytryptophan],BMI,overweight women,decrease
same,feeling of satiety,overweight women,significantly increased
"CC[N+](CC)(CC(=O)Nc1c(C)cccc1C)Cc1ccccc1 [DB, denatonium benzoate]",meal-induced GLP-1 secretion,obese mice,increase
same,body weight,obese mice; obese mice,reduction
same,GLP-1 plasma levels,rodents,increase
same,blood glucose,rodents,reduction
same,gastric emptying,rodents,slowing
same,insulin concentration,rodents,increase
same,PYY secretion,NCI-H716 cells,stimulates
COc1ccc2cc3[n+](cc2c1OC)CCc1cc2c(cc1-3)OCO2 [berberine],GLP-1 secretion,[1],dose-dependently stimulate
NC(=S)Nc1ccccc1 [phenylthiourea],GLP-1 secretion,[1],dose-dependently stimulate
C=C[C@H]1C[N@@]2CC[C@H]1C[C@H]2[C@H](O)c1ccnc2ccc(OC)cc12 [quinine HCl],CCK plasma concentrations,young healthy subjects,increased
same,energy intake during an ad libitum meal,young healthy subjects,reduced
